Measured values as given in patent US20070128217A1 (priority 2003, published 2007).

Key:
[1] = test system: antibodies in sera from SARS patients (sera 1a, 1b, 2, 6, 37, 62, London, SARS-yellow, SARS-green); assay type: binding, human; design: Binding of serum 6 to linear peptides of protein X1 of SARS-CoV Urbani / Binding of serum 37 to linear peptides of protein X1 of SARS-CoV Urbani / Binding of serum 6 to looped/cyclic peptide (PEPSCAN-ELISA) / Binding of serum 37 to looped/cyclic peptide (PEPSCAN-ELISA) / Binding of serum 37 to looped/cyclic peptides of protein X1 of SARS-CoV Urbani / Binding of serum 6 to linear peptides of protein X2 / Binding of serum 37 to linear peptides of protein X2 / Binding of serum 37 to looped/cyclic peptides of protein X2 of SARS-CoV Urbani / Binding of serum 6 to linear peptides of protein M of SARS-CoV Urbani / Binding of serum 37 to linear peptides of protein M of SARS-CoV Urbani / Binding of serum 6 to looped/cyclic peptides of protein M of SARS-CoV Urbani / Binding of serum 37 to looped/cyclic peptides of protein M of SARS-CoV Urbani / Binding of serum 6 to linear peptides of protein X3 of SARS-CoV Urbani / Binding of serum 37 to linear peptides of protein X3 of SARS-CoV Urbani / Binding of serum 37 to looped/cyclic peptides of protein X3 of SARS-CoV Urbani / Binding of serum 6 to linear peptides of protein X4 of SARS-CoV Urbani / Binding of serum 37 to linear peptides of protein X4 of SARS-CoV Urbani / Binding of serum 37 to looped/cyclic peptides of protein X4 of SARS-CoV Urbani / Binding of serum 6 to linear peptides of protein X5 of SARS-CoV Urbani / Binding of serum 37 to linear peptides of protein X5 of SARS-CoV Urbani / Binding of serum 37 to looped/cyclic peptides of protein X5 of SARS-CoV Urbani / Binding of serum 6 to linear peptides of protein N of SARS-CoV Urbani / Binding of serum 37 to linear peptides of protein N of SARS-CoV Urbani / Binding of serum 6 to linear peptide (PEPSCAN-ELISA) / Binding of serum 1a to looped/cyclic peptides of protein N of SARS-CoV Urbani / Binding of serum 1b to looped/cyclic peptides of protein N of SARS-CoV Urbani / Binding of serum 2 to looped/cyclic peptides of protein N of SARS-CoV Urbani / Binding of serum 6 to looped/cyclic peptides of protein N of SARS-CoV Urbani / Binding of serum 37 to looped/cyclic peptides of protein N of SARS-CoV Urbani / Binding of serum 62 to looped/cyclic peptides of protein N of SARS-CoV Urbani / Binding of serum London to looped/cyclic peptides of protein N of SARS-CoV Urbani / Binding of serum SARS-green to looped/cyclic peptides of protein N of SARS-CoV Urbani: unit not given here
[2] = test system: control sera (pooled serum of ten healthy LUMC hospital workers; commercial negative donor pooled serum from the Dutch bloodbank); assay type: binding, human; design: Binding of Control serum LUMC to linear peptides / Binding of Control serum Blood-bank to linear peptides / Binding of Control serum LUMC to looped peptides / Binding of Control Serum Blood-Bank to Looped peptides / Binding of Control serum LUMC to linear peptides of the protein M of SARS-CoV Urbani / Binding of Control serum Blood-bank to linear peptides of the protein M of SARS-CoV Urbani / Binding of Control serum LUMC to looped peptides of the protein M of SARS-CoV Urbani / Binding of Control Serum Blood-Bank to Looped peptides of the protein M of SARS-CoV Urbani: unit not given here
[3] = test system: rabbit serum obtained by immunizing a rabbit with the SARS-CoV strain Frankfurt 1; assay type: binding; design: Binding of a rabbit serum to linear peptides / Binding of a rabbit serum to looped peptides / Rabbit serum linear peptides / Rabbit serum looped peptides / Binding of a rabbit serum to linear peptides of protein N of SARS-CoV Urbani (Rabbit serum linear peptides) / Binding of a rabbit serum to looped/cyclic peptides of protein N of SARS-CoV Urbani (Rabbit serum looped peptides): unit not given here

Sequence	Binding of Control Serum Blood-Bank to Looped peptides [2]	Binding of Control serum Blood-bank to linear peptides [2]	Binding of Control serum LUMC to linear peptides [2]	Binding of Control serum LUMC to looped peptides [2]	Binding of a rabbit serum to linear peptides [3]	Binding of a rabbit serum to looped peptides [3]	Binding of serum 1a to linear peptides of protein X2 [1]	Binding of serum 1a to looped/cyclic peptides of protein X2 of SARS-CoV Urbani [1]	Binding of serum 1b to linear peptides of protein X2 [1]	Binding of serum 1b to looped/cyclic peptides of protein X2 of SARS-CoV Urbani [1]	Binding of serum 2 to linear peptides of protein X2 [1]	Binding of serum 2 to looped/cyclic peptides of protein X2 of SARS-CoV Urbani [1]	Binding of serum 6 to linear peptides of protein X2 [1]	Binding of serum 6 to looped/cyclic peptides of protein X2 of SARS-CoV Urbani [1]	Binding of serum 37 to linear peptides of protein X2 [1]	Binding of serum 37 to looped/cyclic peptides of protein X2 of SARS-CoV Urbani [1]	Binding of serum 62 to linear peptides of protein X2 [1]	Binding of serum 62 to looped/cyclic peptides of protein X2 of SARS-CoV Urbani [1]	Binding of serum London to linear peptides of protein X2 [1]	Binding of serum London to looped/cyclic peptides of protein X2 of SARS-CoV Urbani [1]	further results
VYYQLESTQITTDTG	0.3	0.4	0.4	0.3	0.1	0.5	–	–	–	–	–	–	–	–	–	–	–	–	–	–	Binding of serum 1a to linear peptides of protein X1 of SARS-CoV Urbani [1]: 0.6; Binding of serum 1a to looped/cyclic peptides of protein X1 of SARS-CoV Urbani [1]: 0.4; Binding of serum 1b to linear peptides of protein X1 of SARS-CoV Urbani [1]: 0.5; Binding of serum 1b to looped/cyclic peptides of protein X1 of SARS-CoV Urbani [1]: 0.2; Binding of serum 2 to linear peptides of protein X1 of SARS-CoV Urbani [1]: 0.4; Binding of serum 2 to looped/cyclic peptides of protein X1 of SARS-CoV Urbani [1]: 0.1; Binding of serum 6 to linear peptides of protein X1 of SARS-CoV Urbani [1]: 0.4; Binding of serum 6 to looped/cyclic peptides of protein X1 of SARS-CoV Urbani [1]: 0.1; Binding of serum 37 to linear peptides of protein X1 of SARS-CoV Urbani [1]: 0.6; Binding of serum 37 to looped/cyclic peptides of protein X1 of SARS-CoV Urbani [1]: 0.4; Binding of serum 62 to linear peptides of protein X1 of SARS-CoV Urbani [1]: 0.5; Binding of serum 62 to looped/cyclic peptides of protein X1 of SARS-CoV Urbani [1]: 0.3; Binding of serum London to linear peptides of protein X1 of SARS-CoV Urbani [1]: 0.2; Binding of serum London to looped/cyclic peptides of protein X1 of SARS-CoV Urbani [1]: 0.2; Binding of serum SARS-green to linear peptides of protein X1 of SARS-CoV Urbani [1]: 0.2; Binding of serum SARS-green to looped/cyclic peptides of protein X1 of SARS-CoV Urbani [1]: 0.2; Binding of serum SARS-yellow to linear peptides of protein X1 of SARS-CoV Urbani [1]: 0.3; Binding of serum SARS-yellow to looped/cyclic peptides of protein X1 of SARS-CoV Urbani [1]: 0.1
HRMCKYTQSTALQEL	0.8	0.9	0.7	0.6	0.3	0.4	0.9	0.6	0.8	0.6	0.5	0.4	0.5	1.0	0.8	0.5	0.8	0.6	0.5	1.5	Binding of serum SARS-green to linear peptides of protein X2 [1]: 0.8; Binding of serum SARS-green to looped/cyclic peptides of protein X2 of SARS-CoV Urbani [1]: 0.5; Binding of serum SARS-yellow to linear peptides of protein X2 [1]: 0.8; Binding of serum SARS-yellow to looped/cyclic peptides of protein X2 of SARS-CoV Urbani [1]: 0.5
SLSLHKLLQTLVLKM	0.6	0.4	0.3	0.7	0.1	0.4	0.6	0.5	0.5	0.5	0.3	0.3	0.5	0.9	0.4	0.4	0.5	0.5	0.4	1.2	Binding of serum SARS-green to linear peptides of protein X2 [1]: 0.6; Binding of serum SARS-green to looped/cyclic peptides of protein X2 of SARS-CoV Urbani [1]: 0.3; Binding of serum SARS-yellow to linear peptides of protein X2 [1]: 0.3; Binding of serum SARS-yellow to looped/cyclic peptides of protein X2 of SARS-CoV Urbani [1]: 0.7
